Experimental data published in patent US6632602B1, “Plant sugar sensors and uses thereof” (The General Hospital Corporation, priority 1996, dated 2003).

Columns and labels:
Arabidopsis seedlings [1] = assay: Osmotic control experiments on 6% mannitol or 6% 3-MeGlc plates; assay type: in vivo; details: plated on 6% of the substance
From the text: To rule out the possibility that the difference in sugar sensing between transgenic and control plants was due to an osmotic effect, mannitol and 3-O-methylglucose (3-MeGlc) were used in control experiments.

[2] = test system: yeast hxk1/hxk2 double mutant (DBY2219); assay: Functional complementation of yeast hxk1/hxk2 double mutant on fructose; assay type: cell-based, Saccharomyces cerevisiae; details: for Complementation of yeast double mutant, growth on fructose as sole carbon source: cDNA transformed into DBY2219
From the text: To elucidate the role of HXK as a sugar sensor, the Arabidopsis HXK genes were cloned by functional complementation using a yeast Saccharomyces cerevisiae hxk1/hxk2 double mutant (designated DBY2219), a strain which lacked HXK activity (Ma and Botstein, Mol. Cell. Biol. 6, 4046 (1986)). Using this approach, we identified two cDNAs, designated AtHXK1 (FIG. 1F; SEQ ID NO: 3, GenBank accession no. U28214) and AtHXK2 (FIG. 1G; SEQ ID NO: 4, GenBank accession no. U28215). These cDNAs, which were 2.0 and 1.9 kb in length respectively, were both found reproducibly to complement the yeast double mutant and to allow its growth on a selection plate containing fructose as the sole carbon source. […] In contrast, mutants transformed with the plasmid vector pFL61 alone were incapable of growth on the same selection media (FIG. 1A) (Minet et al., Plant J. 2, 417 (1992)).

[3] = test system: yeast hxk1/hxk2 double mutant (DBY2219); assay: Yeast glucose repression assay on 2-dGlc/raffinose plate; assay type: cell-based, Saccharomyces cerevisiae; details: 2% raffinose, 2-deoxyglucose (0.02%)
From the text: To confirm this hypothesis, we sought to increase the expression of a heterologous HXK that would provide excess catalytic activity for sugar metabolism, but no regulatory function. The yeast HXK2 (YHXK2) has been proposed to have catalytic and regulatory functions, and appeared to be a good candidate for this experiment (Entian, Mol. Gen. Genet. 178, 633 (1980); Entian and Frshlich, J. Bacteriol. 158, 29 (1984); Entian et al., Mol. Cell. Biol. 5, 3035 (1985)). We first determined whether the putative regulatory functions of the YHXK2 and AtHXK were interchangeable by examining the effect of increasing the expression of AtHXK on glucose repression in a yeast hxk1/hxk2 double mutant (DBY2219). The assay was based on the YHXK2-mediated growth inhibition (i.e., glucose repression) of wild-type yeast cells on a 2-dGlc/raffinose plate. The glucose repression assay was performed using a YP plate with 2% raffinose as the carbon source in the presence of 2-deoxyglucose (0.02%) as described by Ma et al. (Mol. Cell. Biol. 9, 5643 (1989)). The glucose analog, 2-dGlc, mimics glucose by inducing strong repression of the invertase gene (SUC2), but is itself unavailable for use as a carbon source.

Arabidopsis seedlings [4] = assay: Sugar sensitivity bioassay of light-grown seedlings on 6% glucose or 0.8 mM 2-dGlc plates; assay type: in vivo; details: control plants, constant light; 6% glucose or low concentration (0.8 mM) 2-dGlc
From the text: To test the hypothesis that AtHXKs act as sugar sensors in intact plants, transgenic plant models were established by introducing sense and antisense genes to alter AtHXK levels. Wild-type (Bensheim) Arabidopsis plants were transformed with binary vectors carrying gene fusions with the CaMV35S promoter and sense AtHXK1 (sense-AtHXK1), sense AtHXK2 (sense-AtHXK2), antisense AtHXK1 (anti-AtHXK1), or antisense AtHXK2 (anti-AtHXK2) using a standard Agrobacterium-mediated root transformation protocol (Czako et al., Mol. Gen. Genet. 235, 33 (1992)). The presence of a transgene was determined by NPTII expression and resultant kanamycin resistance, and by DNA blot analysis. Several transgenic lines of the T3 generation homozygous for the sense or antisense transgenes were selected for further analyses.
Sugar sensitivity of transgenic plants was examined by performing bioassays using 6% glucose or 0.8 mM 2-deoxyglucose (2-dGlc), a nonmetabolizable glucose analog. […]
The scored phenotypes shown in Table 1 were determined based on the examination of light-grown, 7-day-old seedlings which were germinated on 1/2 MS plates containing either 6% glucose or 0.8 mM of 2-dGlc. Sugar insensitive (Ins), hypersensitive (Hyp), and ambiguous (A) phenotypes were scored and tabulated.

| Compound | Difference between control and transgenic plants (Arabidopsis seedlings [1]) | Complementation of yeast double mutant, growth on fructose as sole carbon source [2] | Glucose repression in hxk1/hxk2 strain [3] | other results |
| --- | --- | --- | --- | --- |
| OC[C@@H](O)[C@@H](O)[C@H](O)[C@H](O)CO [mannitol] | No apparent difference |  |  |  |
| AtHXK2: Arabidopsis hexokinase cDNA, SEQ ID NO: 4, GenBank accession no. U28215 |  | complement | did not restore glucose repression |  |
| CO[C@@H]([C@H](O)[C@H](O)CO)[C@@H](O)C=O [3-MeGlc, 3-O-methylglucose] | No apparent difference |  |  |  |
| AtHXK1: Arabidopsis hexokinase cDNA, SEQ ID NO: 3, GenBank accession no. U28214 |  | complement | did not restore glucose repression | Catalytic activity in yeast transformation experiment ([2]; data not shown): higher catalytic activity than AtHXK2 |
| O=CC[C@@H](O)[C@H](O)[C@H](O)CO [2-dGlc, 2-deoxyglucose] |  |  |  | Effect of sugar on control (wild-type) seedling development (Arabidopsis seedlings [4]): greening of cotyledons was found to be inhibited |
